Experimental data from PubChem BioAssay (NCI).
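Protocol summary: plate cells (96-well), add compound at 5 concentrations, incubate 48 h, interpolate endpoints linearly. At the GI50, growth is halved. Definition used: TGI = concentration required for complete inhibition of growth.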

Columns and labels:
Test in all cases: NCI anticancer screen, dose series, 48 h
HOP-62 NSCLC = tested on: HOP-62 NSCLC
SK-MEL-5 melanoma = tested on: SK-MEL-5 melanoma
SW-620 colon = tested on: SW-620 colon
IGROV1 ovarian = tested on: IGROV1 ovarian
K-562 leukemia = tested on: K-562 leukemia
OVCAR-5 ovarian = tested on: OVCAR-5 ovarian
MALME-3M melanoma = tested on: MALME-3M melanoma
HT29 colon = tested on: HT29 colon
SK-MEL-2 melanoma = tested on: SK-MEL-2 melanoma
BT-549 breast = tested on: BT-549 breast
U251 CNS = tested on: U251 CNS
CCRF-CEM leukemia = tested on: CCRF-CEM leukemia
RXF 393 renal = tested on: RXF 393 renal
NCI-H23 lung = tested on: NCI-H23 lung
SK-OV-3 ovarian = tested on: SK-OV-3 ovarian
SN12C renal = tested on: SN12C renal
T-47D breast = tested on: T-47D breast
OVCAR-8 ovarian = tested on: OVCAR-8 ovarian
SF-539 CNS = tested on: SF-539 CNS
CAKI-1 renal = tested on: CAKI-1 renal
TK-10 renal = tested on: TK-10 renal
M14 melanoma = tested on: M14 melanoma
DU-145 prostate = tested on: DU-145 prostate
ACHN renal = tested on: ACHN renal
MDA-MB-231 breast = tested on: MDA-MB-231 breast
HS 578T breast = tested on: HS 578T breast
PC-3 prostate = tested on: PC-3 prostate
EKVX NSCLC = tested on: EKVX NSCLC
MCF7 breast = tested on: MCF7 breast
KM12 colon = tested on: KM12 colon
SNB-19 CNS = tested on: SNB-19 CNS
A549 NSCLC = tested on: A549 NSCLC
SR leukemia = tested on: SR leukemia
SF-295 CNS = tested on: SF-295 CNS
MDA-MB-468 breast = tested on: MDA-MB-468 breast
UACC-62 melanoma = tested on: UACC-62 melanoma
HCT-15 colon = tested on: HCT-15 colon
HOP-92 NSCLC = tested on: HOP-92 NSCLC
UACC-257 melanoma = tested on: UACC-257 melanoma
COLO 205 colon = tested on: COLO 205 colon
LOX IMVI melanoma = tested on: LOX IMVI melanoma
SNB-75 CNS = tested on: SNB-75 CNS
OVCAR-4 ovarian = tested on: OVCAR-4 ovarian
SK-MEL-28 melanoma = tested on: SK-MEL-28 melanoma
UO-31 renal = tested on: UO-31 renal
MOLT-4 leukemia = tested on: MOLT-4 leukemia
OVCAR-3 ovarian = tested on: OVCAR-3 ovarian
RPMI-8226 leukemia = tested on: RPMI-8226 leukemia
SF-268 CNS = tested on: SF-268 CNS
HCT-116 colon = tested on: HCT-116 colon
NCI-H226 lung = tested on: NCI-H226 lung
HCC-2998 colon = tested on: HCC-2998 colon
786-0 renal = tested on: 786-0 renal
A498 renal = tested on: A498 renal
NCI-H460 lung = tested on: NCI-H460 lung
NCI-H522 lung = tested on: NCI-H522 lung
HL-60(TB) leukemia = tested on: HL-60(TB) leukemia

## Oc1ccc(/C=C2\CCCc3cc4ccc(O)cc4[o+]c32)c(O)c1
HOP-62 NSCLC
  GI50: 44.2 µM
  TGI: > 100 µM
SK-MEL-5 melanoma
  GI50: 5.74 µM
  TGI: 19.9 µM
SW-620 colon
  GI50: 3.87 µM
  TGI: 69.2 µM
IGROV1 ovarian
  GI50: 18.9 µM
  TGI: 78.1 µM
K-562 leukemia
  GI50: 4.03 µM
  TGI: > 100 µM
OVCAR-5 ovarian
  GI50: 53.1 µM
  TGI: > 100 µM
MALME-3M melanoma
  GI50: 4.77 µM
  TGI: 40.3 µM
HT29 colon
  GI50: 17.9 µM
  TGI: 46.6 µM
SK-MEL-2 melanoma
  GI50: 12.2 µM
  TGI: 58.6 µM
BT-549 breast
  GI50: 5.75 µM
  TGI: > 100 µM
U251 CNS
  GI50: 4.16 µM
  TGI: 41.3 µM
CCRF-CEM leukemia
  GI50: 3.56 µM
  TGI: > 100 µM
RXF 393 renal
  GI50: 2.26 µM
  TGI: 10.8 µM
NCI-H23 lung
  GI50: 11.7 µM
  TGI: > 100 µM
SK-OV-3 ovarian
  GI50: 27.2 µM
  TGI: > 100 µM
SN12C renal
  GI50: 29.9 µM
  TGI: > 100 µM
T-47D breast
  GI50: 5.23 µM
  TGI: > 100 µM
OVCAR-8 ovarian
  GI50: 6.91 µM
  TGI: > 100 µM
SF-539 CNS
  GI50: 7.04 µM
  TGI: 42 µM
CAKI-1 renal
  GI50: 5.25 µM
  TGI: > 100 µM
TK-10 renal
  GI50: 47.2 µM
  TGI: > 100 µM
M14 melanoma
  GI50: 6.7 µM
  TGI: > 100 µM
DU-145 prostate
  GI50: 22.2 µM
  TGI: > 100 µM
ACHN renal
  GI50: 6.1 µM
  TGI: > 100 µM
MDA-MB-231 breast
  GI50: 3.99 µM
  TGI: 33.1 µM
HS 578T breast
  GI50: 2.68 µM
  TGI: > 100 µM
PC-3 prostate
  GI50: 4.09 µM
  TGI: > 100 µM
EKVX NSCLC
  GI50: 8.82 µM
  TGI: > 100 µM
MCF7 breast
  GI50: 2.68 µM
  TGI: 70.8 µM
KM12 colon
  GI50: 3.3 µM
  TGI: 13.7 µM
SNB-19 CNS
  GI50: 24.9 µM
  TGI: > 100 µM
A549 NSCLC
  GI50: 44.2 µM
  TGI: > 100 µM
SR leukemia
  GI50: 3.09 µM
  TGI: > 100 µM
SF-295 CNS
  GI50: 19.7 µM
  TGI: > 100 µM
MDA-MB-468 breast
  GI50: 1.99 µM
  TGI: 6.46 µM
UACC-62 melanoma
  GI50: 5.02 µM
  TGI: 26 µM
HCT-15 colon
  GI50: 3.27 µM
  TGI: 11.2 µM
HOP-92 NSCLC
  GI50: 6.43 µM
  TGI: > 100 µM
UACC-257 melanoma
  GI50: 15.3 µM
  TGI: > 100 µM
COLO 205 colon
  GI50: 15.2 µM
  TGI: 44.5 µM
LOX IMVI melanoma
  GI50: 2.95 µM
  TGI: 12.5 µM
SNB-75 CNS
  GI50: 2.88 µM
  TGI: 65.6 µM
OVCAR-4 ovarian
  GI50: 16.5 µM
  TGI: > 100 µM
SK-MEL-28 melanoma
  GI50: 12.3 µM
  TGI: 52.4 µM
UO-31 renal
  GI50: 7.23 µM
  TGI: 59.9 µM
MOLT-4 leukemia
  GI50: 3.06 µM
  TGI: > 100 µM
OVCAR-3 ovarian
  GI50: 3.39 µM
  TGI: 14.7 µM
RPMI-8226 leukemia
  GI50: 4.93 µM
  TGI: > 100 µM
SF-268 CNS
  GI50: 6.81 µM
  TGI: > 100 µM
HCT-116 colon
  GI50: 3.82 µM
  TGI: > 100 µM
NCI-H226 lung
  GI50: 26.6 µM
  TGI: > 100 µM
HCC-2998 colon
  GI50: 6.29 µM
  TGI: 20.4 µM
786-0 renal
  GI50: 8.21 µM
  TGI: > 100 µM
A498 renal
  GI50: > 100 µM
  TGI: > 100 µM
NCI-H460 lung
  GI50: 5.14 µM
  TGI: 42.2 µM
NCI-H522 lung
  GI50: 2.51 µM
  TGI: 11.2 µM
HL-60(TB) leukemia
  GI50: 2.65 µM
  TGI: 57.3 µM
